{"source": "patent US6835551B2", "about": "“Basophil degranulation test” (Orpegen Pharma GmbH, priority 1999, dated 2004)", "system": "basophilic granulocytes", "conditions": "fMLP 10^-7 M, 30 minutes at 37° C., typical values", "method": "Peripheral blood (heparinised) of the patient is incubated with various concentrations of the suspected allergen at 37° C. […] The detection is carried out by a three colour immunofluorescence and flow cytometric analysis. The chemotactic peptide fMLP serves as a positive control and a buffer solution (PBS) is used as the negative control.\nThe sample to be examined is divided into aliquots of 100 μl in each case. In the case of high leukocyte numbers (WBC of 10-20,000 C/μl) it is possible to use a smaller sample volume e.g. 50 μl. Multiple test mixtures are not necessary.\nALK-depot SQ (Scherax) mixture of 6 grasses+rye is used at concentrations of 10,000, 1,000, 100 and 10 U/ml. ALK-prick SQ (Scherax) bee venom and ALK-prick SQ (Scherax) wasp venom are used at concentrations of 10, 1, 0.1 and 0.01 μg/ml. Latex allergens, PPL (allergopen) and MDM (allergopen) are used in dilutions of 1:10, 1:100 and 1:1,000. Penicillin Grünenthal is used at concentrations of 100, 10, 1 and 0.1 μg/ml. PBS serves as a negative control and fMLP at a concentration of 10^−7 M (i.e. 1:2,000 PBS) is used as the positive control. A sample from a healthy normal test person is also assayed as a further control.\n100 μl of each of the allergen dilutions is added to an aliquot of the sample, mixed and incubated for 30 minutes at 37° C. in a water bath. Then the mixtures are placed on ice.\nThe following antibody solutions are then added.\na) 20 μl anti gp55-FITC (prediluted)\nb) 20 μl anti IgE-PE (prediluted)\nc) 10 μl anti CD45-cychrome or 20 μl CD45-PerCP\nAfter antibody addition it is well mixed (vortex) and incubated for 20 minutes on ice while protected from light.\n2 ml FACS lysing solution (erythrocyte lysis and leukocyte fixation) is then added, it is mixed (vortex) and incubated for 10 minutes at room temperature while protected from light. Subsequently it is centrifuged for 5 min at 1300 rpm or 300 g and decanted.\nThe cells are washed by adding 3 ml wash solution (PBS), centrifuging (5 min at 1300 rpm or 300 g) and decanting.\nThe sample is measured by flow cytometry for example on an FACS scan instrument. The stability of the measured sample is presumably ≧2 hours on flaked ice in the dark.\nIn the SSC/IgE dot plot, a region is set around the cells with low and high side scattered light and strong IgE expression. […] The markers are set such that the evaluation region covers the region of the gp55 positive basophils (the PBS test mixture serves as a negative control). The mean value FL1 is observed in all (also gp55-negative) cell populations. If possible, at least 1000 cells of the subclass of interest (in this case basophils) are recorded. […] It is therefore possible to view the percentage which is adequate for evaluating the test result.", "data": [{"substance": "fMLP", "values": [{"measurement": "% basos", "setting": "heparinised whole blood", "result": 2.35, "unit": "%"}, {"measurement": "mean gp55", "setting": "mean FL1 of all basophils", "result": 369}, {"measurement": "mean CD45", "setting": "mean fluorescence (CD45 expression density) of basophils", "result": 349}, {"measurement": "mean IgE", "setting": "mean fluorescence (IgE density) of basophils", "result": 981}, {"measurement": "% gp55", "setting": "percentage of gp55-positive basophilic granulocytes", "result": 30.6, "unit": "%"}]}]}
